How the values were obtained:
VEGFR-2 = molecular target: T1, VEGFR-2 (Homo sapiens, UniProt P35968); assay: Kinase-Glo Plus luminescence kinase inhibition assay, VEGFR-2; assay type: biochemical; conditions: 10 µM ATP, 30 °C, 40 min; mean ± SEM
T1 construct: purchased BPS Bioscience 40301
Experimental: (§1) The enzyme inhibition assay for the tested molecules was performed at BPS Bioscience Corporation, San Diego, CA, USA. The following materials served as the enzyme sources, Poly (Glu, Tyr) sodium salt (4:1, Glu:Tyr) (Sigma#P7244) served as the standardized substrate, and the Kinase-Glo Plus Luminescence kinase assay kit (Promega # V3772) was used. […] Glo Plus luminescence kinase assay kits. The assays were performed using Kinase-Glo Plus luminescence (Promega Corporation, Madison, WI, USA).
(§2) The tested molecules 9, 20, and indurbin were diluted to 100 µL in DMSO (10%), and 5 µL of the solution was added to a 50-µL enzyme reaction until the final concentration of DMSO was 1% in all of reactions. The enzymatic reactions were conducted at 30 °C for 40 min. The reaction mixture contained enzyme substrate and respective kinases. After the enzymatic reaction, 50 µL of enzyme-Glo Plus luminescence […] assay solution (Promega) was added to each reaction, and the plate was incubated for 5 min at room temperature. The luminescence signal was measured using a BioTek Synergy 2 microplate reader. The luminescence data were analyzed using the computer software GraphPad Prism. The difference between luminescence intensities in the absence of enzyme (Lut) and in the presence of enzyme (Luc) was defined as 100% activity (Lut − Luc). […] The IC50 value was determined using GraphPad Prism software. […]
(§3) Glo Plus luminescence kinase assay kits were used in these assays. […] The assay measures kinase activity by quantitating the amount of ATP remaining in the solution following kinase reaction. […] After the enzymatic reaction, 50 µL of Kinase-Glo Plus Luminescence kinase assay solution (Promega) was added to each reaction, and the plate was incubated for 5 min at room temperature. The luminescence signal was measured using a BioTek Synergy 2 microplate reader. […] The luminescence data were analyzed using the Graphpad Prism software.

CDK-2 = molecular target: T2, CDK-2 (Homo sapiens, UniProt P24941); assay: Kinase-Glo Plus luminescence kinase inhibition assay, CDK-2; assay type: biochemical; conditions: for IC50: 10 µM ATP, 30 °C, 40 min, mean ± SEM
T2 construct: purchased BPS Bioscience 41101
Experimental: as §1
The tested molecules 9, 20, and indurbin were diluted to 100 µL in DMSO (10%), and 5 µL of the solution was added to a 50-µL enzyme reaction until the final concentration of DMSO was 1% in all of reactions. The enzymatic reactions were conducted at 30 °C for 40 min. The reaction mixture contained enzyme substrate and respective kinases. After the enzymatic reaction, 50 µL of enzyme-Glo Plus luminescence […] assay solution (Promega) was added to each reaction, and the plate was incubated for 5 min at room temperature. The luminescence signal was measured using a BioTek Synergy 2 microplate reader. The luminescence data were analyzed using the computer software GraphPad Prism. The difference between luminescence intensities in the absence of enzyme (Lut) and in the presence of enzyme (Luc) was defined as 100% activity (Lut − Luc). The values of enzyme activity percentages versus five concentrations of the small molecule were then plotted using a non-linear regression analysis of the sigmoidal dose–response curve. The IC50 value was determined using GraphPad Prism software. All experiments were repeated three times (Table S3).
Glo Plus luminescence kinase assay kits were used in these assays. The assay was done at Bioscience Laboratory BPS, California, USA. The assay measures kinase activity by quantitating the amount of ATP remaining in the solution following kinase reaction. The luminescent signal from the assay was correlated with the amount of ATP present and inversely correlated with kinase activity. […] All of the enzymatic reactions were conducted at 30 °C for 40 min. The reaction mixture contained 40 mM Tris, pH 7.4, 10 mM MgCl2, 0.1 mg/mL BSA, 1 mM DTT, 10 µM ATP, Kinase substrate, and VEGFR-2, EFGR, CDK-2 and CDK-4 enzymes. After the enzymatic reaction, 50 µL of Kinase-Glo Plus Luminescence kinase assay solution (Promega) was added to each reaction, and the plate was incubated for 5 min at room temperature. The luminescence signal was measured using a BioTek Synergy 2 microplate reader. Kinase activity assays were performed in triplicate for each concentration. The luminescence data were analyzed using the Graphpad Prism software.

CDK-4 = molecular target: T3, CDK-4 (Homo sapiens, UniProt P11802); assay: Kinase-Glo Plus luminescence kinase inhibition assay, CDK-4; assay type: biochemical; conditions: 10 µM ATP, 30 °C, 40 min; mean ± SEM
T3 construct: purchased BPS Bioscience 79674
T3 sequence (P11802 whole entry): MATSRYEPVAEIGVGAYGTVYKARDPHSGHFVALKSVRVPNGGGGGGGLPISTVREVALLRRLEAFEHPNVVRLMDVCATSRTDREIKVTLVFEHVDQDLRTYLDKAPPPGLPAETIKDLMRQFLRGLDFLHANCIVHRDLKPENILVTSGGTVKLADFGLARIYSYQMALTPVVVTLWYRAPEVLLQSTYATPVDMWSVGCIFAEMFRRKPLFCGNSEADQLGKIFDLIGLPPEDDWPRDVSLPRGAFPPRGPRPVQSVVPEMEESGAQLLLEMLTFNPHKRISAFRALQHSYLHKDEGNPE
T3 sequence (P30281 whole entry partner): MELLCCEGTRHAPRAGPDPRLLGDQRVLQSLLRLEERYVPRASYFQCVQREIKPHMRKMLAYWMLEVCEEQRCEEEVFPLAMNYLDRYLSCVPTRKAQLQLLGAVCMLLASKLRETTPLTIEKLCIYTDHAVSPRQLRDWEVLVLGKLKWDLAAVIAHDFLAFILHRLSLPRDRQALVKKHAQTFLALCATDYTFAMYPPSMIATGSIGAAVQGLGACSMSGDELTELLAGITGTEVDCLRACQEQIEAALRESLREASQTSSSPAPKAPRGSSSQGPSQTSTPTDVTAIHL
Experimental: as §1, §2, §3

HepG-2 cells = assay: DNA flow cytometry cell cycle analysis; assay type: cell-based, human; conditions: HepG-2, compound at its IC50, 24 h
Experimental: The HepG-2 cells were then collected by trypsinization, washed with PBS, and fixed. After that, treated cells were stained using the Cycle Test Plus DNA Reagent Kit (BD Biosciences, San Jose, CA, USA) according to the manufacturer’s instructions. The percentage of cell cycle distribution was calculated using CELLQUEST software 5.1 (Becton Dickinson Immuno-cytometry Systems, San Jose, CA, USA) (Table S4).

HepG2 cells = assay: Annexin-V-FITC/PI apoptosis assay; assay type: cell-based, human; conditions: HepG2, compound at its IC50, 24 h
Experimental: Then, the cells were washed with PBS and detached by trypsin. The detached cells were collected into a 15-mL centrifuged tube, washed with ice-cold PBS twice, and centrifuged at 1200 rpm for 5 min. A volume of 0.1 mL binding buffer was added to the treated HepG-2 cells, followed by adding 5 μL of annexin V-FITC and 5 μL of 50 μg/mL PI staining reagents. After mixing and reacting at 25 °C for 15 min in the dark, the apoptotic cell percentages were analyzed by a flow cytometer [FACS Calibur flow cytometer (BD Biosciences)] (Table S5).

p53 = assay: ELISA of p53 in treated HepG-2 cells; assay type: cell-based, human; conditions: for upregulation of p53 expression compared to untreated cells: HepG-2, compound at its IC50, 24 h; for Concentration of p53: HepG-2, compound at its IC50, ± S.E.M, control 48.29±3.87
Experimental: HepG2 cells were cultured in RPMI 10% + 5%FBS penicillin/streptomycin and were incubated at a humidity 5% CO2 and maintained at 37 °C. […] HepG2 cells were cultured as a monolayer in T-25 flasks and were seeded to attain 30% confluency prior to treatment. The main 100 mM stock dissolved in DMSO was diluted with the cell culture medium in order to reach the previously determined IC50 concentration of each of the three preparations. After that, HepG2 cells were collected via trypsinization and centrifuged at 10,000 rpm. The pellet was then rinsed with PBS and lysed in RIPA lysis buffer at 4 °C for 45 min, then centrifuged at 14,000 rpm for 20 min to remove the cellular debris. Lysates were then collected and stored at […] for protein determination. The levels of p53, p21, Fas-L, Bax, Bcl-2, and caspase 3/7 were assessed using the human P53 ELISA kit (Catalog No. ABIN6962151), P21 ELISA kit (Catalog No. ABIN6966175), Human Apoptosis Ligand (FAS-L), Bax ELISA kit, Human Factor-Related. Bcl-2 ELISA kit ELISA kit, and caspase3/7 ELISA kit (Elabscience Biotechnology Co., Wuhan, Hubei, China). The procedure of the used kits was done according to the manufacturer’s instructions. Briefly, equal amounts of cell lysates were loaded and then probed with specific antibodies. The samples were measured at 450 nm in ROBONEK P2000 ELISA reader. The analysis was confirmed with three different sets of extracts. All experiments were done in triplicate (Tables S6–S9).

T1 sequence (P35968 20-1356): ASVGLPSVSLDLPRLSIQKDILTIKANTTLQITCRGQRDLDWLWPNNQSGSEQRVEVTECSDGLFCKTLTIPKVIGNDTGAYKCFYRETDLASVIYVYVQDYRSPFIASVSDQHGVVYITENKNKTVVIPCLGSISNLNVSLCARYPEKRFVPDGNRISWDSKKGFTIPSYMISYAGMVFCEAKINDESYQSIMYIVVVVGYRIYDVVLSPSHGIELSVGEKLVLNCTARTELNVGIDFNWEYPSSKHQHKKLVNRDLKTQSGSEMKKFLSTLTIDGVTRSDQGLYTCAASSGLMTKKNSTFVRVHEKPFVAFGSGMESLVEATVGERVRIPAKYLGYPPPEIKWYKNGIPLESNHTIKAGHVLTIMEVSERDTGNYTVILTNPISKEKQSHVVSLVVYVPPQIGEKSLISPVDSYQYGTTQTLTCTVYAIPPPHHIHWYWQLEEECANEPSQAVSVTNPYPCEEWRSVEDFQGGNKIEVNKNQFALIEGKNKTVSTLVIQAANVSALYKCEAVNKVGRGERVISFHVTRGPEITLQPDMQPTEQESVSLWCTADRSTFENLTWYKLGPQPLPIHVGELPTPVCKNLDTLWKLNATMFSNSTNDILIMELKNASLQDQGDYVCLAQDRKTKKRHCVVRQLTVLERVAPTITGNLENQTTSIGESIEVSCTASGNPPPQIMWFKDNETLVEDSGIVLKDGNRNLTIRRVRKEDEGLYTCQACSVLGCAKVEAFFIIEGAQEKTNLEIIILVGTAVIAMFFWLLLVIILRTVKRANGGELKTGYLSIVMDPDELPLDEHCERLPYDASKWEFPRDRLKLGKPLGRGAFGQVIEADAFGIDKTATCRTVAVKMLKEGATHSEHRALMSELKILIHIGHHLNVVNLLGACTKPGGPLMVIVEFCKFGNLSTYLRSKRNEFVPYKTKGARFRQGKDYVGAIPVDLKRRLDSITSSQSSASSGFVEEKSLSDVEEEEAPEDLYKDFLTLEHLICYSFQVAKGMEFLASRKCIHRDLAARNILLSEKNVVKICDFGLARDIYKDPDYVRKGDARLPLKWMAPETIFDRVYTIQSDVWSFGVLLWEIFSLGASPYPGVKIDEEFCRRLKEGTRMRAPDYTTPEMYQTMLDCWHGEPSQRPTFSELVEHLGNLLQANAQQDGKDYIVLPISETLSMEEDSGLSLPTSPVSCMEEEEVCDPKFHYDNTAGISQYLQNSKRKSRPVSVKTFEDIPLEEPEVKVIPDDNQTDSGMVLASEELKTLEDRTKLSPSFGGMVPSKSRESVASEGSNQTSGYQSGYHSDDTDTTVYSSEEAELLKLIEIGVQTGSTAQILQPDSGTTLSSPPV

O=C1Nc2ccc(Cl)cc2C1=Nc1ccc2nc[nH]c(=O)c2c1 [Compound 9, 6-(5-Chloro-2-oxo-1,2-dihydro-indol-3-ylideneamino)-3H-quinazolin-4-one]
IC50 (VEGFR-2): 56.7 ± 4.3 nM
IC50 (CDK-2): 9.39 ± 0.51 nM
fold higher inhibitory effect than indirubin against CDK-2 (CDK-2; relative to indirubin): 4.8 fold
IC50 (CDK-4): 36.4 ± 4.52 nM
Cell cycle distribution (%) G0-G1 (HepG-2 cells): 67.16%
Cell cycle distribution (%) G2-M (HepG-2 cells): 20.75%
Cell cycle distribution (%) S (HepG-2 cells): 32.03%
Cell cycle distribution (%) sub-G0/G1 (HepG-2 cells): 13.82%
Apoptosis Early (HepG2 cells): 5.05%
Apoptosis Late (HepG2 cells): 3.72%
Apoptosis Total (HepG2 cells): 8.77%
Necrosis (HepG2 cells): 2.69%
increase of cell population at late apoptosis compared with untreated control (HepG2 cells): around 11 fold
increase of cells in early apoptotic stage compared with untreated control (HepG2 cells): around 6 fold
upregulation of p53 expression compared to untreated cells (p53): 6.7 fold
Concentration of p53 (p53): 325.11 ± 29.55 pg/mL

O=C1Nc2ccc(Cl)cc2C1=Nc1ccc(-c2nc3ccccc3c(=O)[nH]2)cc1 [Compound 20, 2-[4-(5-Chloro-2-oxo-1,2-dihydro-indol-3-ylideneamino)-phenyl]-3H-quinazolin-4-one]
IC50 (VEGFR-2): 14.3 ± 2.7 nM
IC50 (CDK-2): 225 ± 12.6 nM
IC50 (CDK-4): 244 ± 12.2 nM
Cell cycle distribution (%) G0-G1 (HepG-2 cells): 60.3%
Cell cycle distribution (%) G2-M (HepG-2 cells): 2.86%
Cell cycle distribution (%) S (HepG-2 cells): 16.27%
Cell cycle distribution (%) sub-G0/G1 (HepG-2 cells): 10.59%
Apoptosis Early (HepG2 cells): 4.91%
Apoptosis Late (HepG2 cells): 6.75%
Apoptosis Total (HepG2 cells): 11.66%
Necrosis (HepG2 cells): 1.91%
increase of cell population at late apoptosis compared with untreated control (HepG2 cells): ~21 fold
increase of cells in early apoptotic stage compared with untreated control (HepG2 cells): around 6 fold
upregulation of p53 expression compared to untreated cells (p53): 2.65 fold
Concentration of p53 (p53): 127.43 ± 9.43 pg/mL

Source: PMC11901902, “Design, Synthesis, and Cytotoxicity Evaluation of Novel Indolin-2-One Based Molecules on Hepatocellular Carcinoma HepG2 Cells as Protein Kinase Inhibitors” (Molecules, 2025)
